Experimental data published in patent US20070275968A1, “Substituted Biphenyl Derivative” (priority 2004, published 2007).

SMILES | melting point
Cc1cccc(-c2[nH]c(C(C)C)nc2-c2cccc(-c3cccc(NS(C)(=O)=O)c3)c2)n1 [Example 19, N-{3′-[2-Isopropyl-5-(6-methylpyridin-2-yl)-1H-imidazol-4-yl]-1,1′-biphenyl-3-yl}methanesulfonamide] | 108 to 112 °C
Cc1cccc(-c2[nH]c(C(C)C)nc2-c2cccc(-c3cccs3)c2)n1 [Example 20, 2-[2-Isopropyl-4-(3-thien-2-ylphenyl)-1H-imidazol-5-yl]-6-methylpyridine] | 73 to 76 °C
Cc1cccc(-c2[nH]c(C(C)C)nc2-c2cccc(-c3ccoc3)c2)n1 [Example 21, 2-{4-[3-(3-Furyl)phenyl]-2-isopropyl-1H-imidazol-5-yl}-6-methylpyridine] | 74 to 78 °C
Cc1cccc(-c2[nH]c(C(C)C)nc2-c2cccc(-c3ccc[nH]3)c2)n1 [Example 23, 2-{2-Isopropyl-4-[3-(1H-pyrrol-2-yl)phenyl]-1H-imidazol-5-yl}-6-methylpyridine] | 103 to 107 °C
CC(=O)c1ccc(-c2cccc(-c3nc(C(C)C)[nH]c3-c3cccc(C)n3)c2)cc1 [Example 24, 1-{3′-[2-Isopropyl-5-(6-methylpyridin-2-yl)-1H-imidazol-4-yl]-1,1′-biphenyl-4-yl}ethanone] | 84 to 87 °C
CCS(=O)(=O)c1ccc(-c2cccc(-c3nc(C(C)C)[nH]c3-c3cccc(C)n3)c2)cc1 [Example 25, 2-{2-Isopropyl-4-[4′-(ethylsulfonyl)-1,1′-biphenyl-3-yl]-1H-imidazol-5-yl}-6-methylpyridine] | 103 to 116 °C
Cc1cccc(-c2[nH]c(C(C)C)nc2-c2cccc(-c3ccc([N+](=O)[O-])cc3)c2)n1 [Example 27, 2-[2-Isopropyl-4-(4′-nitro-1,1′-biphenyl-3-yl)-1H-imidazol-5-yl]-6-methylpyridine] | 95 to 105 °C
Cc1cccc(-c2[nH]c(C(C)C)nc2-c2cccc(-c3ccc(N)cc3)c2)n1 [Example 28, 2-[2-Isopropyl-4-(4′-amino-1,1′-biphenyl-3-yl)-1H-imidazol-5-yl]-6-methylpyridine] | 107 to 117 °C
Cc1cccc(-c2[nH]c(C(C)C)nc2-c2cccc(-c3ccc(CN)cc3)c2)n1 [Example 29, 1-{3′-[2-Isopropyl-5-(6-methylpyridin-2-yl)-1H-imidazol-4-yl]-1,1′-biphenyl-4-yl}methanamine] | 113 to 123 °C (dec.)
CCS(=O)(=O)Nc1ccc(-c2cccc(-c3nc(C(C)C)[nH]c3-c3cccc(C)n3)c2)cc1 [Example 30, N-{3′-[2-Isopropyl-5-(6-methylpyridin-2-yl)-1H-imidazol-4-yl]-1,1′-biphenyl-4-yl}ethanesulfonamide] | 123 to 135 °C
Cc1cccc(-c2[nH]c(C(C)C)nc2-c2cccc(-c3ccc(NS(=O)(=O)C4CC4)cc3)c2)n1 [Example 31, N-{3′-[2-Isopropyl-5-(6-methylpyridin-2-yl)-1H-imidazol-4-yl]-1,1′-biphenyl-4-yl}cyclopropylsulfonamide] | 135 to 145 °C
CC(=O)Nc1ccc(-c2cccc(-c3nc(C(C)C)[nH]c3-c3cccc(C)n3)c2)cc1 [Example 32, N-{3′-[2-Isopropyl-5-(6-methylpyridin-2-yl)-1H-imidazol-4-yl]-1,1′-biphenyl-4-yl}acetamide] | 140 to 145 °C
Cc1cccc(-c2[nH]c(C(C)C)nc2-c2cccc(-c3ccc(NC(=O)C(C)(C)O)cc3)c2)n1 [Example 34, 2-Hydroxy-N-{3′-[2-isopropyl-5-(6-methylpyridin-2-yl)-1H-imidazol-4-yl]-1,1′-biphenyl-4-yl}-2-methylpropanamide] | 123 to 135 °C
Cc1cccc(-c2[nH]c(C(C)C)nc2-c2cccc(-c3ccc(C(N)=O)cn3)c2)n1 [Example 36, 6-{3-[2-Isopropyl-5-(6-methylpyridin-2-yl)-1H-imidazol-4-yl]phenyl}nicotinamide] | 138 to 144 °C
